{"source": "patent US9278067B2", "about": "“Encapsulation of plasmid DNA (lipogenes™) and therapeutic agents with nuclear localization signal/fusogenic peptide conjugates into targeted liposome complexes” (Regulon, Inc., priority 2000, dated 2016)", "key": {"[1]": {"tested_on": "K562 human erythroleukemia cell cultures", "test": "Transfection of K562 cells with plasmid pCMVβ, beta-galactosidase reporter expression", "type": "cell-based", "details": "FIG. 2"}, "[2]": {"details": "pH 7.4; cited from earlier work"}, "[3]": {"tested_on": "complement system", "details": "cited from earlier work"}, "[4]": {"tested_on": "isolated lysosomes", "details": "low concentrations of lipid; cited from earlier work"}, "[5]": {"tested_on": "luciferase", "details": "cited from earlier work"}, "[6]": {"details": "low concentrations (0.03-0.1 mM)"}, "[7]": {"tested_on": "neuronal cell", "details": "cited from earlier work"}, "[8]": {"tested_on": "several different types of cells", "details": "with monovalent cationic liposomal formulations (DC-Chol and lipofectin); cited from earlier work"}, "[9]": {"details": "cell culture; cited from earlier work"}, "[10]": {"tested_on": "C-terminal fragments of the amyloid peptide", "details": "cited from earlier work"}}, "data": [{"compound": "CC(C)CCC[C@@H](C)[C@H]1CC[C@H]2[C@@H]3CC=C4C[C@@H](OC(=O)NCCN(C)C)CC[C@]4(C)[C@H]3CC[C@]12C", "note": "[DC-cholesterol, 3β[N—(N′,N′-dimethylaminoethane)carbamoyl]cholesterol]", "values": [{"measurement": "cationic lipid compared by level of expression of the reporter beta-galactosidase gene", "setting": "[1]; liposomes L2-L6 with DOPE", "value": "best cationic lipid"}, {"measurement": "charged fraction", "setting": "[2]", "value": "about 50%"}]}, {"compound": "CCCCCCCCCCCCCCOCC(C[N+](C)(C)CCO)OCCCCCCCCCCCCCC.[Br-]", "note": "(centres unmarked) [DMRIE, N-[1-(2,3-dimyristyloxy)propyl]-N,N-dimethyl-N-(2-hydroxyethyl) ammonium bromide]", "values": [{"measurement": "charged fraction", "setting": "[2]", "value": 100, "unit": "%"}]}, {"compound": "CCCCCCCCCCCCCCCCCCN(CCCCCCCCCCCCCCCCCC)C(=O)CNC(=O)C(CCCNCCCN)NCCCN", "note": "(centres unmarked) [DOGS, Dioctadecylamidoglycylspermine]", "values": [{"measurement": "complement activation", "setting": "[3]", "value": "Strong complement activation"}]}, {"compound": "CCCCCCCC/C=C\\CCCCCCCC(=O)OCC(C[N+](C)(C)C)OC(=O)CCCCCCC/C=C\\CCCCCCCC.[Cl-]", "note": "(centres unmarked) [DOTAP, N-(1-(2,3-dioleoyloxy)propyl)-N,N,N-trimethylammonium chloride]", "values": [{"measurement": "free activity of β-galactosidase of isolated lysosomes (membrane destabilization)", "setting": "[4]", "value": "striking increase in free activity of β-galactosidase"}, {"measurement": "charged fraction", "setting": "[2]", "value": 100, "unit": "%"}, {"measurement": "increase of antisense activity of anti-luciferase oligonucleotide", "setting": "[5]", "value": "over 100 fold"}]}, {"compound": "NCCCNCCCCNCCCN", "note": "[Spermine]", "values": [{"measurement": "transfection efficiency", "setting": "[6]", "value": "enhanced significantly transfection efficiency"}]}, {"compound": "Non-aggregated amyloid beta-peptide (1-40): Alzheimer's beta-amyloid peptide 1-40, non-aggregated", "values": [{"measurement": "Properties: neuronal cell death", "setting": "[7]", "value": "Induces apoptotic neuronal"}]}, {"compound": "Protamine sulfate", "values": [{"measurement": "plasmid delivery into cells in vitro", "setting": "[8]", "value": "enhanced plasmid delivery"}, {"measurement": "efficiency of adenovirus-mediated gene transfer", "setting": "[9]", "value": "significantly increased"}]}, {"compound": "apoE2: apolipoprotein E isoform", "values": [{"measurement": "inhibition of amyloid peptide fusogenic and aggregational properties", "setting": "[10]", "value": "potent inhibitors"}]}, {"compound": "apoE3: apolipoprotein E isoform", "values": [{"measurement": "inhibition of amyloid peptide fusogenic and aggregational properties", "setting": "[10]", "value": "potent inhibitors"}]}, {"compound": "apoE4: apolipoprotein E isoform", "values": [{"measurement": "inhibition of amyloid peptide fusogenic and aggregational properties", "setting": "[10]", "value": "not apoE4"}]}, {"compound": "poly(ethyleneimine)", "values": [{"measurement": "complement activation", "setting": "[3]", "value": "Strong complement activation"}]}, {"compound": "poly-L-lysine", "values": [{"measurement": "efficiency of adenovirus-mediated gene transfer", "setting": "[9]", "value": "significantly increased"}]}, {"compound": "polyhistidine", "values": [{"measurement": "DNA condensing reagent compared by level of expression of the reporter beta-galactosidase gene", "setting": "[1]; 10 μg pCMVβ, polyK/polyR/polyH plus liposomes 7 nmoles/μg DNA", "value": "best DNA condensing reagent"}]}]}
